Source: PMC11198769, “Enhancement of transcription efficiency by TAR-Tat system increases the functional expression of human olfactory receptors” (PLOS ONE, 2024)

Legend:
Assay in all cases: Comprehensive analysis (screening) of hORs against n-hexanal
Type in all cases: cell-based
OR2M3 = biological target: T1, OR2M3 (Homo sapiens, UniProt Q8NG83); conditions: OR2M3, 500 μM n-hexanal, with the TAR-Tat system (hOR/pHEK), n = 1
T1 construct: Lucy tag (N); expressed in transfected cells; host or cells: Flp-In T-REx-293 cells stably expressing RTP1S, Gαolf and Ric8-b
T1 sequence (Q8NG83 1-312): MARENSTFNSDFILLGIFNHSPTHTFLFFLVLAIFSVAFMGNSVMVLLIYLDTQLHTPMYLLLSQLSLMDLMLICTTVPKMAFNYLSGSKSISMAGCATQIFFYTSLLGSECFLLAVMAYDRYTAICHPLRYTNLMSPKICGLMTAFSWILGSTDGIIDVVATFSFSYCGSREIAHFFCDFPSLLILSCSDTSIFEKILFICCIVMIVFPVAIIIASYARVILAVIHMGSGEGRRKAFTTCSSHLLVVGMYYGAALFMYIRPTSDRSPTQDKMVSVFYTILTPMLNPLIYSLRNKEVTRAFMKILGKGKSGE
Procedure: (§1) Transfection was performed as described in the “hOR assay,” but 12.5 ng of 379 hOR plasmids (hOR/pBApo and hOR/pHEK) was transfected with the 12.5 ng pGlosensor^TM-22F cAMP biosensor plasmid (Promega) in 384 plates per well. After loading the GloSensor cAMP substrate and preincubation, the assay buffer was added (30 μL/well). After 10 min of equilibration, luminescence was measured (L0). Then, 50 mM n-hexanal, which was diluted with 10% DMSO/assay buffer, was added (4.7 μL/well). After 9 min, luminescence was measured (L9min). All the L9min values were subtracted by the L0 value (ΔL).

OR2B3 = biological target: T2, OR2B3 (Homo sapiens, UniProt O76000); conditions: OR2B3, 500 μM n-hexanal, with the TAR-Tat system (hOR/pHEK), n = 1
T2 construct: Lucy tag (N); FLAG (N); Rho tag (N); expressed in transfected cells; host or cells: Flp-In T-REx-293 cells stably expressing RTP1S, Gαolf and Ric8-b
T2 sequence (O76000 1-313): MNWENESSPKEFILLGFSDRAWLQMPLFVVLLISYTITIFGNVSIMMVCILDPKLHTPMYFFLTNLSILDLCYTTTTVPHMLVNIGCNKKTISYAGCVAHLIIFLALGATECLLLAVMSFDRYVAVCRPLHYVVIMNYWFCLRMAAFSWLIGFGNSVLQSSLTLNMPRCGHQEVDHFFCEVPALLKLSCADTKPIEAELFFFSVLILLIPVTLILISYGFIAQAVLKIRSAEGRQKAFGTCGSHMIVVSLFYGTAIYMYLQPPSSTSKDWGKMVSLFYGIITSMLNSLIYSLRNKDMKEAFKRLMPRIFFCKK
Procedure: as §1

OR10A2 = biological target: T3, OR10A2 (Homo sapiens, UniProt Q9H208); conditions: OR10A2, 500 μM n-hexanal, with the TAR-Tat system (hOR/pHEK), n = 1
T3 construct: Lucy tag (N); expressed in transfected cells; host or cells: Flp-In T-REx-293 cells stably expressing RTP1S, Gαolf and Ric8-b
T3 sequence (Q9H208 1-303): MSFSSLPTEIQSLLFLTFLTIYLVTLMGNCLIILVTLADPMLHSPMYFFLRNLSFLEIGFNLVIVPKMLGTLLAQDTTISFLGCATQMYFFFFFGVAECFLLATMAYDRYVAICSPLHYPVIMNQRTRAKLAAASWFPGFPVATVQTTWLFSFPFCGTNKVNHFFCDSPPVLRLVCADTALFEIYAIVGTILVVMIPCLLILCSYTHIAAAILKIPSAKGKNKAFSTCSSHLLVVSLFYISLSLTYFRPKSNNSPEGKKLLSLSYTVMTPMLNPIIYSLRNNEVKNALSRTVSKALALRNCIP
Procedure: as §1

OR2J3 = biological target: T4, OR2J3 (Homo sapiens, UniProt O76001); conditions: OR2J3, 500 μM n-hexanal, n = 1
T4 construct: Lucy tag (N); FLAG (N); Rho tag (N); expressed in transfected cells; host or cells: Flp-In T-REx-293 cells stably expressing RTP1S, Gαolf and Ric8-b
T4 sequence (O76001 1-311): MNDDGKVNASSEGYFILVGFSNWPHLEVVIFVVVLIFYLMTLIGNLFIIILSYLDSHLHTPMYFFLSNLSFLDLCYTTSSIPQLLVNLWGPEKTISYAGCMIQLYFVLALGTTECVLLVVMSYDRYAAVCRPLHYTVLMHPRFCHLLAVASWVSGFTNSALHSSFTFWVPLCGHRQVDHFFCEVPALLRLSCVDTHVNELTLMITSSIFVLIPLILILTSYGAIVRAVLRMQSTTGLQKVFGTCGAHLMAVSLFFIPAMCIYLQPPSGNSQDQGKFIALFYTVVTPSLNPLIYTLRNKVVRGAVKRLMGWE
Procedure: as §1

OR56B1 = biological target: T5, OR56B1 (Homo sapiens, UniProt Q8NGI3); conditions: OR56B1, 500 μM n-hexanal, with the TAR-Tat system (hOR/pHEK), n = 1
T5 construct: Lucy tag (N); expressed in transfected cells; host or cells: Flp-In T-REx-293 cells stably expressing RTP1S, Gαolf and Ric8-b
T5 sequence (Q8NGI3 1-324): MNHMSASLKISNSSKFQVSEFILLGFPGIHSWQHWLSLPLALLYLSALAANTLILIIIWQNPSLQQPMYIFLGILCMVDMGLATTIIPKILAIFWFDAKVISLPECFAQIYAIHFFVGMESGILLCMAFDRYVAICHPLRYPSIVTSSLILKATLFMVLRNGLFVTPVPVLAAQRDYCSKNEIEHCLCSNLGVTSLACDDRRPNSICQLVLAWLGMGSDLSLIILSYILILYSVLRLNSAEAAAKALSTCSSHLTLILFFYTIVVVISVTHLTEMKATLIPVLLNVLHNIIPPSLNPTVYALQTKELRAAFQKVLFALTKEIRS
Procedure: as §1

OR2Z1 = biological target: T6, OR2Z1 (Homo sapiens, UniProt Q8NG97); conditions: OR2Z1, 500 μM n-hexanal, with the TAR-Tat system (hOR/pHEK), n = 1
T6 construct: Lucy tag (N); FLAG (N); Rho tag (N); expressed in transfected cells; host or cells: Flp-In T-REx-293 cells stably expressing RTP1S, Gαolf and Ric8-b
T6 sequence (Q8NG97 1-314): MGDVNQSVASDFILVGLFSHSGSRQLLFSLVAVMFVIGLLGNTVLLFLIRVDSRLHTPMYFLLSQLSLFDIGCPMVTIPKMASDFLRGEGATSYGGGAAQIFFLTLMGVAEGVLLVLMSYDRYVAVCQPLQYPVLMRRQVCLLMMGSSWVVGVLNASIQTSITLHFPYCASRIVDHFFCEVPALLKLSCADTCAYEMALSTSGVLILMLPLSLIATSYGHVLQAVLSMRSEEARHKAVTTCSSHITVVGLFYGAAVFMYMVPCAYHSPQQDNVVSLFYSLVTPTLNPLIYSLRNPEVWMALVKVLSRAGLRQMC
Procedure: as §1

response value (ΔL) (OR2M3): −620
response value (ΔL) (OR2B3): > 500
response value (ΔL) (OR10A2): > 500
response value (ΔL) (OR2J3; with the TAR-Tat system (hOR/pHEK)): 1580
response value (ΔL) (OR2J3; without the TAR-Tat system (control plasmid)): 549
response value (ΔL) (OR56B1): > 500
response value (ΔL) (OR2Z1): > 500
Compound: CCCCCC=O [n-hexanal]
